Assay results reported in ChEMBL document CHEMBL1156824, “Physicochemical space for optimum oral bioavailability: contribution of human intestinal absorption and first-pass elimination” (J Med Chem, 2010).

What was measured:
[1] = organism: Homo sapiens; experiment: Hepatic clearance in human; conditions: in vivo
[2] = (§1) Volume of distribution at steady state in human; conditions: in vivo
[3] = organism: Homo sapiens; experiment: in vitro; conditions: plasma
[4] = clinical; conditions: human, in vivo
[5] = test system: Homo sapiens; experiment: Oral bioavailability in human; conditions: in vivo
[6] = organism: Homo sapiens; experiment: Fraction absorbed in human; conditions: in vivo
[7] = organism: Homo sapiens; experiment: Fraction escaping gut-wall elimination in human; conditions: in vivo
[8] = organism: Homo sapiens; experiment: Fraction escaping hepatic elimination in human; conditions: in vivo
[9] = organism: Homo sapiens; conditions: in vivo
[10] = test system: Plasma; experiment: Fraction unbound in human plasma
[11] = organism: Homo sapiens; experiment: as §1; conditions: in vivo

Compound	CL [1] [mL/min/kg]	Fu [10]	also measured
CCOC(=O)C1(c2ccccc2)CCC=CC1N(C)C (stereo unspecified) [TILIDINE]	15.7	–	Vd [2]: 4 L/kg; fraction unbound [3]: 0.21; CL renal [4]: 0.3 mL/min/kg
CCc1cccc2cc(C(O)CNC(C)(C)C)oc12 (stereo unspecified) [BUFURALOL]	8.9	–	F_fraction [5]: 0.43; Fa [6]: 1; Fg [7]: 0.7; Fh [8]: 0.61; CL_renal [9]: 0 mL/min/kg; fraction unbound [3]: 0.19
Cc1ncc2n1-c1ccc(Cl)cc1C(c1ccccc1F)=NC2 [MIDAZOLAM]	5.3	–	F_fraction [5]: 0.38; CL_renal [9]: 0 mL/min/kg
COc1ccc(Cl)cc1C(=O)NCCc1ccc(S(=O)(=O)NC(=O)NC2CCCCC2)cc1 [GLYBURIDE]	0.8	0.021	Vd [2]: 0.08 L/kg
CCCCC(=O)N(Cc1ccc(-c2ccccc2-c2nnn[nH]2)cc1)[C@H](C(=O)O)C(C)C	0.3	0.04	CL renal [4]: 0.1 mL/min/kg
Cc1cccc(C)c1NC(=O)NCCCNC(C)C	2.2	–	fraction unbound [3]: 0.86
O=C1C(O)=C([C@H]2CC[C@H](c3ccc(Cl)cc3)CC2)C(=O)c2ccccc21 [ATOVAQUONE]	0.2	0.001	Vd [2]: 0.6 L/kg
CC(C)(C)NCC(O)COc1cccc2c1CC(O)C(O)C2 (stereo unspecified) [NADOLOL]	1.1	0.14	–
CC(C)N(CCC(C(N)=O)(c1ccccc1)c1ccccn1)C(C)C (stereo unspecified) [DISOPYRAMIDE]	0.4	0.16	–
CO/N=C(\C(=O)N[C@@H]1C(=O)N2C(C(=O)O)=C(CSc3nc(=O)c(=O)[nH]n3C)CS[C@H]12)c1csc(N)n1 [CEFTRIAXONE]	0.1	0.052	CL renal [4]: 0.1 mL/min/kg
COc1ccc2c(c1)c(CC(=O)O)c(C)n2C(=O)c1ccc(Cl)cc1 [INDOMETHACIN]	1.1	0.01	–
COc1ccnc(C[S+]([O-])c2nc3ccc(OC(F)F)cc3[nH]2)c1OC (stereo unspecified) [PANTOPRAZOLE]	2.2	–	Vdss [11]: 6.3 L/kg
COCc1c(C(C)C)nc(C(C)C)c(/C=C/[C@@H](O)C[C@@H](O)CC(=O)O)c1-c1ccc(F)cc1 [CERIVASTATIN]	2.9	–	CL_renal [9]: 0 mL/min/kg
CCCc1cc(=O)[nH]c(=S)[nH]1 [PROPYLTHIOURACIL]	3.1	0.18	Fg [7]: 0.97; Fh [8]: 0.87
C[C@]12C=CC(=O)C=C1CC[C@@H]1[C@@H]2[C@@H](O)C[C@@]2(C)[C@H]1CC[C@]2(O)C(=O)CO [PREDNISOLONE]	2.3	0.25	–
CO/N=C(\C(=O)N[C@@H]1C(=O)N2C(C(=O)O)=C(C)CS[C@H]12)c1csc(N)n1	0.4	–	fraction unbound [3]: 0.78
